Structures can show the parent of a compound that is named as a salt. Blank lines part the entries; values can stand above or below the compound they belong to.
Legend:
[1] = system: male ICR mice; assay: Test of drop in blood glucose after meal (OGTT with sucrose load); assay type: in vivo; conditions: for effect of drop in blood glucose compared to G8 (excipient control): 20 minutes after administration of sucrose
[2] = Measurement of hygroscopicity; assay type: physicochemical; conditions: 95% RH, 25° C.
[3] = system: diabetes mellitus induced experimental animal; assay: Effect of drop in blood glucose level in diabetes mellitus induced (alloxan) rats; assay type: in vivo; conditions: for glucose concentration in blood: 0.05 mg as metformin, peritoneally
Description: This test supports the effect of the present invention.

[4] = system: Human being; conditions: Oral; cited from earlier work
[5] = system: Mouse; conditions: Intraperitoneal; cited from earlier work
[6] = 100 mg/kg oral, 0 min after sucrose 2 g/kg
[7] = 100 mg/kg oral, 40 min after sucrose 2 g/kg
[8] = 100 mg/kg oral, 60 min after sucrose 2 g/kg
[9] = 100 mg/kg oral, 90 min after sucrose 2 g/kg
[10] = 100 mg/kg oral, 120 min after sucrose 2 g/kg
[11] = 100 mg/kg oral, 240 min after sucrose 2 g/kg
[12] = 200 mg/kg oral, 0 min after sucrose 2 g/kg
[13] = 200 mg/kg oral, 20 min after sucrose 2 g/kg
[14] = 200 mg/kg oral, 40 min after sucrose 2 g/kg
[15] = 200 mg/kg oral, 60 min after sucrose 2 g/kg
[16] = 200 mg/kg oral, 90 min after sucrose 2 g/kg
[17] = 200 mg/kg oral, 120 min after sucrose 2 g/kg
[18] = 200 mg/kg oral, 240 min after sucrose 2 g/kg
[19] = 400 mg/kg oral, 0 min after sucrose 2 g/kg
[20] = 400 mg/kg oral, 20 min after sucrose 2 g/kg
[21] = 400 mg/kg oral, 40 min after sucrose 2 g/kg
[22] = 400 mg/kg oral, 60 min after sucrose 2 g/kg
[23] = 400 mg/kg oral, 90 min after sucrose 2 g/kg
[24] = 400 mg/kg oral, 120 min after sucrose 2 g/kg
[25] = 400 mg/kg oral, 240 min after sucrose 2 g/kg

Structure (SMILES): CC(=O)O.CN(C)C(=N)NC(=N)N [Metformin acetate, N,N-dimethyl imidodicarbonimidic diamide acetate]
- effect of drop in blood glucose ([1]; 100 mg/kg (G2), 240 minutes): effect of drop in blood glucose could be observed
- glucose concentration in blood [1, 6]: 101.63 ± 4.94 mg/dL
- glucose concentration in blood [1, 7]: 212.00 ± 15.68 mg/dL
- glucose concentration in blood [1, 8]: 170.75 ± 17.38 mg/dL
- glucose concentration in blood [1, 9]: 134.50 ± 15.64 mg/dL
- glucose concentration in blood [1, 10]: 106.63 ± 10.44 mg/dL
- glucose concentration in blood [1, 11]: 63.63 ± 4.94 mg/dL
- effect of drop in blood glucose ([1]; 200 mg/kg (G3), 120 minutes): effect of drop in blood glucose could be observed
- effect of drop in blood glucose ([1]; 200 mg/kg (G3), 240 minutes): effect of drop in blood glucose could be observed
- effect of drop in blood glucose compared to G8 (excipient control) ([1]; 200 mg/kg (G3, G6)): effect of drop in blood glucose could be observed
- glucose concentration in blood [1, 12]: 101.63 ± 4.58 mg/dL
- glucose concentration in blood [1, 13]: 213.13 ± 11.36 mg/dL
- glucose concentration in blood [1, 14]: 201.00 ± 21.78 mg/dL
- glucose concentration in blood [1, 15]: 165.75 ± 15.91 mg/dL
- glucose concentration in blood [1, 16]: 129.63 ± 8.08 mg/dL
- glucose concentration in blood [1, 17]: 106.38 ± 4.07 mg/dL
- glucose concentration in blood [1, 18]: 80.00 ± 3.73 mg/dL
- effect of drop in blood glucose compared to G8 (excipient control) ([1]; 400 mg/kg (G4, G7)): effect of drop in blood glucose could be observed
- glucose concentration in blood [1, 19]: 104.13 ± 6.53 mg/dL
- glucose concentration in blood [1, 20]: 190.25 ± 16.05 mg/dL
- glucose concentration in blood [1, 21]: 169.63 ± 21.19 mg/dL
- glucose concentration in blood [1, 22]: 141.50 ± 18.24 mg/dL
- glucose concentration in blood [1, 23]: 106.38 ± 13.75 mg/dL
- glucose concentration in blood [1, 24]: 86.25 ± 11.25 mg/dL
- glucose concentration in blood [1, 25]: 69.25 ± 7.96 mg/dL
- effect of drop in blood glucose compared with metformin hydrochloride ([1]; 200 and 400 mg/kg dosage group, 20 to 60 minutes after administration of sucrose): higher effect of drop in blood glucose than that of the metformin hydrochloride
- effect of drop in blood glucose after meal compared with metformin hydrochloride ([1]; overall inference from Table 11): more excellent than that of the metformin hydrochloride
- hygroscopicity compared with metformin hydrochloride [2]: lower than that of the metformin hydrochloride
- Hygroscopicity ([2]; 1 day): 0.35%
- Hygroscopicity ([2]; 2 days): 0.93%
- Hygroscopicity ([2]; 3 days): 1.37%
- Hygroscopicity ([2]; 6 days): 11.21%
- Hygroscopicity ([2]; 9 days): 23.32%
- decrease of glucose concentration versus control group ([3]; 10 hours after administration): about 7.5 mmol/L
- effect of drop in blood glucose compared with metformin hydrochloride ([3]; alloxan rats): more excellent than that of metformin hydrochloride
- glucose concentration in blood ([3]; alloxan rats, 0 hours): 13.8 mmol/L
- glucose concentration in blood ([3]; alloxan rats, 2 hours): 6.4 mmol/L
- glucose concentration in blood ([3]; alloxan rats, 4 hours): 7.5 mmol/L
- glucose concentration in blood ([3]; alloxan rats, 6 hours): 6.8 mmol/L
- glucose concentration in blood ([3]; alloxan rats, 8 hours): 5.9 mmol/L
- glucose concentration in blood ([3]; alloxan rats, 10 hours): 6.9 mmol/L

Structure (SMILES): CC(=O)O [Acetic acid]
- Dose (TDLo) [4]: 1,470 μg/kg

Structure (SMILES): Cl [Hydrochloric acid]
- Dose (LD50) [5]: 40 mg/kg

- Hygroscopicity ([2]; 1 day): 6.29%
- Hygroscopicity ([2]; 2 days): 11.86%
- Hygroscopicity ([2]; 3 days): 23.3%
- Hygroscopicity ([2]; 6 days): 60.33%
- Hygroscopicity ([2]; 9 days): 68.78%
Structure (SMILES): CN(C)C(=N)N=C(N)N [Metformin hydrochloride, metformin hydrochloride, reference compound]
- glucose concentration in blood [1, 6]: 104.00 ± 6.53 mg/dL
- glucose concentration in blood ([1]; 100 mg/kg oral, 20 min after sucrose 2 g/kg): 246.00 ± 16.70 mg/dL
- glucose concentration in blood [1, 7]: 194.38 ± 8.02 mg/dL
- glucose concentration in blood [1, 8]: 151.50 ± 5.45 mg/dL
- glucose concentration in blood [1, 9]: 122.38 ± 4.69 mg/dL
- glucose concentration in blood [1, 10]: 111.75 ± 6.45 mg/dL
- glucose concentration in blood [1, 11]: 83.63 ± 3.49 mg/dL
- effect of drop in blood glucose compared to G8 (excipient control) ([1]; 200 mg/kg (G3, G6)): effect of drop in blood glucose could be observed
- glucose concentration in blood [1, 12]: 107.13 ± 2.84 mg/dL
- glucose concentration in blood [1, 13]: 227.50 ± 20.57 mg/dL
- glucose concentration in blood [1, 14]: 187.25 ± 15.16 mg/dL
- glucose concentration in blood [1, 15]: 147.25 ± 9.89 mg/dL
- glucose concentration in blood [1, 16]: 121.25 ± 8.15 mg/dL
- glucose concentration in blood [1, 17]: 106.75 ± 5.65 mg/dL
- glucose concentration in blood [1, 18]: 87.13 ± 4.50 mg/dL
- effect of drop in blood glucose compared to G8 (excipient control) ([1]; 400 mg/kg (G4, G7)): effect of drop in blood glucose could be observed
- glucose concentration in blood [1, 19]: 104.75 ± 3.98 mg/dL
- glucose concentration in blood [1, 20]: 187.38 ± 10.32 mg/dL
- glucose concentration in blood [1, 21]: 167.63 ± 7.04 mg/dL
- glucose concentration in blood [1, 22]: 135.63 ± 5.53 mg/dL
- glucose concentration in blood [1, 23]: 110.50 ± 4.78 mg/dL
- glucose concentration in blood [1, 24]: 87.88 ± 9.90 mg/dL
- glucose concentration in blood [1, 25]: 64.38 ± 7.69 mg/dL
- glucose concentration in blood ([3]; alloxan rats, 0 hours): 13.8 mmol/L
- glucose concentration in blood ([3]; alloxan rats, 2 hours): 7.8 mmol/L
- glucose concentration in blood ([3]; alloxan rats, 4 hours): 6.4 mmol/L
- glucose concentration in blood ([3]; alloxan rats, 6 hours): 8.6 mmol/L
- glucose concentration in blood ([3]; alloxan rats, 8 hours): 7.9 mmol/L
- glucose concentration in blood ([3]; alloxan rats, 10 hours): 9.4 mmol/L
